{
  "source": "patent US9034846B2",
  "about": "“Use of cyclodextrin for treatment and prevention of bronchial inflammatory diseases” (UNIVERSITE DE LIEGE, priority 2004, dated 2015)",
  "key": {"[1]": {"system": "OVA exposed mice", "experiment": "Bronchoalveolar lavage differential cell counts, OVA mouse model of asthma", "format": "in vivo", "conditions": "for Eosinophils (%) in BAL / Epithelial cells (%) in BAL / Lymphocytes (%) in BAL / Macrophages (%) in BAL / Neutrophils (%) in BAL / Total cells (10^4/ml) in BAL: Table 2", "description": "In order to study modulation of airway inflammation, males BALB/c mice of 6 to 8 weeks old were sensitized by intraperitoneal injection of 10 μg ovalbumin (OVA) (Sigma Aldrich, Schnelldorf, Germany) emulsified in aluminum hydroxyde (AlumInject; Perbio, Erembodegem, Belgium) on days 1 and 8. Mice were subsequently exposed to allergens by daily inhalation of an aerosol of OVA 1%, for 30 minutes, generated by ultrasonic nebulizer (Devilbiss 2000), from day 21 to 27. Mice were subjected to inhalation of β-CD, HP-β-CD HP 1, 7.5, 50 mM and HP-β-CD 50 mM 30 minutes before OVA inhalation. Mice were sacrificed performed on day 28 as previously reported by Cataldo and al in Am. J. Pathol 2002; 161(2):491-498.\nImmediately after assessment of airway responsiveness, and 24 hours after the last allergen exposure.\nMices were sacrificed and a bronchoalveolar lavage was performed using 4×1 ml PBS-EDTA 0.05 mM (Calbiochem, Darmstadt, Germany) as previously described by Cataldo D D, Tournoy K G, Vermaelen K et al. in Am J Pathol 2002; 161(2):491-498. Cells were recovered by gentle manual aspiration. After centrifugation of bronchoalveolar fluid (BALF) (1200 rpm for 10 minutes, at 4° C.), the supernatant was frozen at −80° C. for protein assessment and the cell pellet was resuspended in 1 ml PBS-EDTA 0.05 mM. The differential cell counts were performed on cytocentrifuged preparations (Cytospin) after staining with Diff-Quick (Dade, Belgium)."}, "[2]": {"system": "OVA exposed mice", "experiment": "Bronchial responsiveness to methacholine (Penh, barometric plethysmograph)", "format": "in vivo, mouse", "description": "In order to study modulation of airway inflammation, males BALB/c mice of 6 to 8 weeks old were sensitized by intraperitoneal injection of 10 μg ovalbumin (OVA) (Sigma Aldrich, Schnelldorf, Germany) emulsified in aluminum hydroxyde (AlumInject; Perbio, Erembodegem, Belgium) on days 1 and 8. Mice were subsequently exposed to allergens by daily inhalation of an aerosol of OVA 1%, for 30 minutes, generated by ultrasonic nebulizer (Devilbiss 2000), from day 21 to 27. […] Mice were sacrificed performed on day 28 as previously reported by Cataldo and al in Am. J. Pathol 2002; 161(2):491-498.\nTwenty-four hours after the last allergen exposure, the bronchial hyper responsiveness was determined by measuring the Penh (Enhanced Pause) using a barometric plethysmograph (Emka technologies, Paris) as proposed by Hamelmann, E., et al., Am. J. Respir. Crit. Care Med. 156 (1997) 766-775). The Penh was measured at baseline and […] after the inhalation of increasing doses (25, 50, 75 and 100 mM) of methacholine (Mch)."}, "[3]": {"system": "CXCL-1", "experiment": "CXCL-1 ELISA in lung protein extracts, LPS-induced inflammation model", "format": "in vivo, mouse", "conditions": "aerosolized 15 mM, vs placebo, FIG. 13", "description": "In lipopolysaccharide (LPS)-induced inflammation model, mice were exposed to 3 μg LPS diluted in 100 μl of PBS or PBS (phosphate buffer saline) only administered by direct tracheal instillations at day 1 and 5 of the protocol. Mice were daily exposed either to aerosolized hydroxypropyl-beta-cyclodextrin (15 mM) or PBS for 30 min from day 0 to 5 (6 hours after LPS or sham exposure at days 1 and 5). Mice were sacrificed at day 6.\nAfter sacrifice, thorax was opened and the right lungs were excised and snap frozen in liquid nitrogen for protein extraction. The left lung was insufflated at constant pressure with 4% paraformaldehyde and embedded in paraffin for further histological analysis. A peribronchial inflammation score was applied on each hematoxylin-eosin stained slide as previously reported (Cataldo et al Am J Pathol 2002). A value from 0 to 2 was adjudged to each bronchus. Score of 0 corresponded to bronchi without inflammation; score 1 to occasional mononuclear cells observed around bronchi, and score 2 to 1 to 5 layer(s) of inflammatory cells around bronchi. Six bronchi per mice were counted and statistical analysis was performed by using GraphPad Program. […] ELISA for CXCL-1 on lung protein extracts were assessed using antibodies from R&D Systems and the R&D Duoset® Elisa Development kit (R&D Systems, Minneapolis, Minn., USA)."}},
  "data": [
    {"substance": "hydroxypropyl-βcyclodextrin [HP-β-CD]", "values": [
      {"measurement": "BAL eosinophils", "setting": "[1]; 1, 7.5 and 50 mM inhalation, FIG. 1", "value": "dose dependent decrease"},
      {"measurement": "Eosinophils (%) in BAL", "setting": "[1]; 1 mM", "value": "34.2 ± 7.705", "unit": "%"},
      {"measurement": "Epithelial cells (%) in BAL", "setting": "[1]; 1 mM", "value": "25.08 ± 3.413", "unit": "%"},
      {"measurement": "Lymphocytes (%) in BAL", "setting": "[1]; 1 mM", "value": "0.48 ± 0.1869", "unit": "%"},
      {"measurement": "Macrophages (%) in BAL", "setting": "[1]; 1 mM", "value": "39.75 ± 5.427", "unit": "%"},
      {"measurement": "Neutrophils (%) in BAL", "setting": "[1]; 1 mM", "value": "0.36 ± 0.1563", "unit": "%"},
      {"measurement": "Total cells (10^4/ml) in BAL", "setting": "[1]; 1 mM", "value": "74.92 ± 14.396 10^4/ml"},
      {"measurement": "Eosinophils (%) in BAL", "setting": "[1]; 10 mM", "value": "27.24 ± 4.98", "unit": "%"},
      {"measurement": "Epithelial cells (%) in BAL", "setting": "[1]; 10 mM", "value": "34.44 ± 3.723", "unit": "%"},
      {"measurement": "Lymphocytes (%) in BAL", "setting": "[1]; 10 mM", "value": "0.21 ± 0.08571", "unit": "%"},
      {"measurement": "Macrophages (%) in BAL", "setting": "[1]; 10 mM", "value": "37.114 ± 3.878", "unit": "%"},
      {"measurement": "Neutrophils (%) in BAL", "setting": "[1]; 10 mM", "value": "0.83 ± 0.5838", "unit": "%"},
      {"measurement": "Total cells (10^4/ml) in BAL", "setting": "[1]; 10 mM", "value": "114.43 ± 33.245 10^4/ml"},
      {"measurement": "Eosinophils (%) in BAL", "setting": "[1]; 50 mM", "value": "12.18 ± 4.366", "unit": "%"},
      {"measurement": "Epithelial cells (%) in BAL", "setting": "[1]; 50 mM", "value": "45.04 ± 5.534", "unit": "%"},
      {"measurement": "Lymphocytes (%) in BAL", "setting": "[1]; 50 mM", "value": "0.12 ± 0.12", "unit": "%"},
      {"measurement": "Macrophages (%) in BAL", "setting": "[1]; 50 mM", "value": "41.86 ± 9.043", "unit": "%"},
      {"measurement": "Neutrophils (%) in BAL", "setting": "[1]; 50 mM", "value": "0.72 ± 0.3992", "unit": "%"},
      {"measurement": "Total cells (10^4/ml) in BAL", "setting": "[1]; 50 mM", "value": "37.33 ± 10.683 10^4/ml"},
      {"measurement": "BAL eosinophil counts", "setting": "[1]; after allergen exposure, inhalation at 50 mM, FIG. 1", "value": "significantly decreased"},
      {"measurement": "Other inflammatory cells in the BAL", "setting": "[1]; after inhalation, compared to placebo", "value": "not present in different amounts"},
      {"measurement": "area under the methacholine dose-response curve (A.U.C)", "setting": "[2]; 50 mM", "value": "significant decrease"},
      {"measurement": "methacholine-induced Penh increase", "setting": "[2]; 50 mM inhalation, FIG. 4", "value": "reduced"},
      {"measurement": "Levels of CXCL-1 in lung protein extracts", "setting": "[3]", "value": "significantly decreased"}
    ]}
  ]
}
